According to the supplement of paper PMC5579334:

Columns and labels:
[1] = tested on: ST8814; experiment: relative IC50 (inflection point of fitted dose-response curve, CellTox-Green cytotoxicity, 72 h; top asymptote may be below 50%); higher = less potent
Summary of the method: (§1)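 MPNST cell lines and primary human Schwann cells were incubated 72 h at 37 °C in 384-well plates holding five 10-fold compound dilutions. CellTox-Green was added before seeding at a final 1:1000 dilution and reported fluorescence from DNA released by disrupted cells. Signals were scaled to vehicle and positive-control wells, and cultures failing plate quality control were dropped. Drug sensitivity score and relative IC50 come from four-parameter logistic fits, with IC50 censored at the top concentration.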

[2] = tested on: HSC2; experiment: as above
Summary of the method: as §1

[3] = tested on: HSC1; experiment: as above
Summary of the method: as §1

[4] = tested on: HS-PSS; experiment: as above
Summary of the method: as §1

[5] = tested on: STS26T; experiment: as above
Summary of the method: as §1

[6] = tested on: S1507-2; experiment: as above
Summary of the method: as §1

[7] = tested on: HS-Sch-2; experiment: relative IC50 (inflection point of fitted dose-response curve, CellTiter-Glo viability, 72 h; top asymptote may be below 50% inhibition); higher = less potent
Summary of the method: (§2)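 MPNST cell lines and primary human Schwann cells (750–1000 cells per well) went into 384-well plates preprinted with each compound at five concentrations in 10-fold steps. Plates were incubated 72 h at 37 °C, 5% CO2. Viability was read as CellTiter-Glo ATP luminescence, scaled between vehicle and positive-control wells, with duplicates averaged where present. Percent inhibition is at the top concentration; drug sensitivity score and relative IC50 (censored at top concentration) come from four-parameter logistic fits.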

[8] = tested on: ST8814; experiment: as above
Summary of the method: as §2

[9] = tested on: YST-1; experiment: as above
Summary of the method: as §2

[10] = tested on: STS26T; experiment: as above
Summary of the method: as §2

[11] = tested on: HSC2; experiment: as above
Summary of the method: as §2

[12] = tested on: HSC1; experiment: as above
Summary of the method: as §2

[13] = tested on: HS-PSS; experiment: as above
Summary of the method: as §2

[14] = tested on: S462; experiment: as above
Summary of the method: as §2

[15] = tested on: S1507-2; experiment: as above
Summary of the method: as §2

Row | SMILES | relative IC50 [1] [µM] | relative IC50 [2] [µM] | relative IC50 [3] [µM] | relative IC50 [4] [µM] | relative IC50 [5] [µM] | relative IC50 [6] [µM] | relative IC50 [7] [µM] | relative IC50 [8] [µM] | relative IC50 [9] [µM] | relative IC50 [10] [µM] | relative IC50 [11] [µM] | relative IC50 [12] [µM] | relative IC50 [13] [µM] | relative IC50 [14] [µM] | relative IC50 [15] [µM]
1 | C[C@]1(c2nc3c(C(N)=O)cccc3[nH]2)CCCN1 [Veliparib] | > 10 | > 10 | > 10 | > 10 | > 10 | > 10 | > 10 | > 10 | 1.16 | > 10 |  |  |  |  | 
2 | Cc1sc2c(c1C)C(c1ccc(Cl)cc1)=N[C@H](CC(=O)OC(C)(C)C)c1nnc(C)n1-2 [(-)JQ1] | > 10 | > 10 | > 10 |  | > 10 | > 10 |  |  |  |  |  |  |  |  | 
3 | NC1(c2ccc(-c3nc4ccn5c(=O)[nH]nc5c4cc3-c3ccccc3)cc2)CCC1 [MK-2206] | > 1 | > 1 | > 1 | > 1 | > 1 | > 1 |  | > 1 | 0.128 | 0.118 | > 1 |  |  |  | 
4 | Nc1nc(F)nc2c1ncn2[C@@H]1O[C@H](CO)[C@@H](O)[C@@H]1O [Fludarabine] | > 10 | > 10 | > 10 | > 10 | > 10 | > 10 | 2.2 | > 10 | 3.48 | 1.65 | 2.72 | 3.61 |  |  | 
5 | C[C@H]1C[C@@H]2[C@H]([C@@H](O)C[C@@]3(C)[C@H]2CC[C@]3(O)C(=O)CO)[C@@]2(C)C=CC(=O)C=C12 [Methylprednisolone] | > 10 | > 10 | > 10 | > 10 | > 10 | > 10 |  |  |  | > 10 | > 10 | > 10 | > 10 |  | 
6 | CN1CCN(c2ccc3nc(-c4c(N)c5c(F)cccc5[nH]c4=O)[nH]c3c2)CC1 [Dovitinib] | > 10 | > 10 | > 10 | > 10 | > 10 | > 10 |  | > 10 |  |  |  |  | > 10 |  | 
7 | CCCCCCCCCCCCCCCCCCOP(=O)([O-])OC1CC[N+](C)(C)CC1 [Perifosine aq/PBS] |  | > 2.5 | > 2.5 |  | 0.963 | > 2.5 |  |  |  | 0.602 | > 2.5 | > 2.5 |  |  | 
8 | Cn1cc(C2=C(c3cn(C4CCN(Cc5ccccn5)CC4)c4ccccc34)C(=O)NC2=O)c2ccccc21 [Enzastaurin] | > 10 | > 10 | > 10 | > 10 |  | > 10 |  |  | > 10 |  | 2.91 |  |  |  | 
9 | CC(C)n1cnc2c(NCCc3ccc(O)cc3)nc(-c3csc4ccccc34)nc21 [StemRegenin 1] | > 10 | > 10 | > 10 | > 10 |  | > 10 | 3.54 | 2.52 | > 10 | 3.83 | 2.2 | 3.83 | 3.2 |  | 
10 | O=C(O)CNC(=O)c1c(O)c2ccccc2n(Cc2ccccc2)c1=O [IOX-2] | > 50 | > 50 | > 50 | > 50 | > 50 | > 50 | 12.5 | 8.42 |  |  |  | > 50 | 10.3 |  | 
11 | CN1CCN(c2nc(C3=C(c4c[nH]c5ccccc45)C(=O)NC3=O)c3ccccc3n2)CC1 [Sotrastaurin] | > 10 | > 10 | > 10 | > 10 | > 10 | > 10 | > 10 |  |  | > 10 | > 10 | > 10 | > 10 |  | 
12 | Cc1ccc(F)c(NC(=O)Nc2ccc(-c3cccc4[nH]nc(N)c34)cc2)c1 [Linifanib] | > 1 | > 1 | > 1 | > 1 | > 1 | > 1 | > 1 |  | > 1 | > 1 |  | > 1 | > 1 |  | 
13 | C[C@@H]1C[C@H]2[C@@H]3CCC4=CC(=O)C=C[C@]4(C)[C@@]3(F)[C@@H](O)C[C@]2(C)[C@@]1(O)C(=O)CO [Dexamethasone] | > 10 | > 10 | > 10 | > 10 | > 10 | > 10 |  |  |  | > 10 | > 10 | > 10 | > 10 |  | 
14 | C[C@@H]1CCN(C(=O)CC#N)C[C@@H]1N(C)c1ncnc2[nH]ccc12 [Tofacitinib] | > 5 | > 5 | > 5 | > 5 | > 5 | > 5 | > 5 | > 5 | > 5 |  | 0.742 |  | > 5 |  | 
15 | O=c1[nH]cc(F)c(=O)[nH]1 [Fluorouracil] | > 10 | > 10 | > 10 | > 10 |  | > 10 | 2.87 | > 10 | 3.28 | 0.907 | 3.29 | 3.58 | 3.57 |  | 
16 | Cc1cc(C(C)Nc2ccccc2)c2nc(N3CCOCC3)cc(=O)n2c1 (configuration not stated) [TGX-221] | > 10 | > 10 | > 10 | > 10 |  | > 10 |  |  | 3.37 | 0.875 | > 10 |  | > 10 |  | 
17 | O=C1c2c(O)ccc(O)c2C(=O)c2c(NCCNCCO)ccc(NCCNCCO)c21 [Mitoxantrone] | 0.384 | > 1 | > 1 | > 1 | 0.38 |  | 0.0874 | 0.291 | 0.0566 | 0.366 | 0.0891 | 0.164 | 0.194 | 0.213 | 0.244
18 | CN(C)c1nc(N(C)C)nc(N(C)C)n1 [Altretamine] | > 10 | > 10 | > 10 | > 10 | > 10 |  | > 10 | > 10 | > 10 | > 10 | > 10 | > 10 | > 10 | > 10 | > 10
19 | C=C1C[C@@H]2[C@H](CC[C@]3(C)C(=O)CC[C@@H]23)[C@@]2(C)C=CC(=O)C=C12 [Exemestane] | > 10 | > 10 | > 10 | > 10 | > 10 | > 10 |  | > 10 | > 10 | > 10 | > 10 | > 10 | 1.76 |  | 
20 | C[C@@H](C(=O)O)c1ccc(-c2ccccc2)c(F)c1 [Tarenflurbil] | > 10 | > 10 | > 10 | > 10 | > 10 |  | > 10 | > 10 | > 10 | > 10 | > 10 | > 10 | > 10 | > 10 | > 10
21 | COc1cccc2cc(-c3nc([C@H]4CC[C@H](C(=O)O)CC4)n4ncnc(N)c34)[nH]c12 [OSI-027] | > 10 | > 10 | > 10 | > 10 | > 10 |  | 3.47 | 0.883 | 0.788 | 1.81 | 1.15 | 0.712 | 3.8 | 0.608 | 0.631
22 | C/C(=C\c1csc(C)n1)[C@@H]1C[C@@H]2O[C@]2(C)CCC[C@H](C)[C@H](O)[C@@H](C)C(=O)C(C)(C)[C@@H](O)CC(=O)O1 [Patupilone] | 0.00433 | 0.00917 | 0.0121 | > 1 | 0.00103 |  | 0.00137 | 0.00225 | 0.00072 | 0.00103 | 0.00245 | 0.000929 | 0.00089 | 0.000718 | 0.00352
23 | COc1cc2nccc(Oc3ccc(NC(=O)C4(C(=O)Nc5ccc(F)cc5)CC4)cc3)c2cc1OC [Cabozantinib] | > 1 | > 1 | > 1 | > 1 | > 1 | > 1 |  |  | > 1 |  | > 1 |  |  |  | 
24 | C=CCN(/C=C1/C(=O)O[C@H](COC)[C@@]2(C)C1=C(O)C(=O)C1=C2[C@H](OC(C)=O)C[C@]2(C)C(=O)CC[C@@H]12)CC=C [Sonolisib] | > 10 | > 10 | > 10 | > 10 | > 10 | > 10 | > 10 |  | > 10 |  |  |  | > 10 |  | 
25 | CC/C(=C(\c1ccc(O)cc1)c1ccc(OCCN(C)C)cc1)c1ccccc1 [4-hydroxytamoxifen] | 3.31 | 2.18 | 3 | 3.41 | 3.56 |  | 2.06 | 2.39 | 1.39 | 2.54 | 2.49 | 2.01 | 2.32 | 1.81 | 1.47
26 | CCc1cncnc1N1CCN(Cc2nc3ccc(C(F)(F)F)cc3[nH]2)CC1 | > 10 | > 10 | > 10 | > 10 | > 10 | > 10 | 3.73 |  |  |  |  |  | 2.57 |  | 
27 | CCCC(CCC)C(=O)O [Valproic acid aq] |  | > 1000 | > 1000 |  |  | > 1000 |  | 168 |  | 254 | 217 | 269 |  |  | 
28 | CO[C@H](C(=O)[C@@H](O)[C@@H](C)O)[C@@H]1Cc2cc3cc(O[C@H]4C[C@@H](O[C@H]5C[C@@H](O)[C@H](O)[C@@H](C)O5)[C@@H](O)[C@@H](C)O4)c(C)c(O)c3c(O)c2C(=O)[C@H]1O[C@H]1C[C@@H](O[C@H]2C[C@@H](O[C@H]3C[C@](C)(O)[C@H](O)[C@@H](C)O3)[C@H](O)[C@@H](C)O2)[C@H](O)[C@@H](C)O1 [Plicamycin] | > 10 | 0.247 | 0.255 | 2.41 | 0.0333 |  | 0.865 | 0.0514 | 0.564 | 0.0475 | 0.052 | 0.0456 | 1.38 | 0.0852 | 0.102
29 | COC1=CC(c2cc3ccccc3[nH]2)=N/C1=C\c1[nH]c(C)cc1C [Obatoclax] | 2.87 | 2.1 | 2.22 | > 10 | 2.96 |  | 1.59 | 2.88 | 1.23 | 2.33 | 1.36 | 1.37 | 1.99 | 1.96 | 1.9
30 | CN(C)CCOc1ccc(/C(=C(/CCCl)c2ccccc2)c2ccccc2)cc1 [Toremifene] | 2.82 | > 10 | > 10 | > 10 |  | 3.22 | 3.46 | 4.06 | 3.74 | 3.44 | 2.87 |  | 3.43 |  | 
